For data set [1], the system named is NHBE cells. Description: Modified GSH/GSSG-Glo assay in NHBE cells. The format is cell-based, human. The protocol: • 1. A tissues sample is treated basolaterally in medium containing 25 μM ROS-GloTM H2O2 substrate for the desired exposure duration. • Treatment duration is not longer than 6 hours due to instability of the substrate. • 2. After treatment, 75 μL of the medium is collected for the ROS endpoint (see example 3), and the remaining cell or tissue sample transferred to new 24-well plate for the GSH/GSSG endpoint. ROS samples are stored at 4° C. for a maximum total of 6 hours taking into account the treatment duration, while GSH/GSSG samples must be processed immediately. This Specific Example Based on GSH/GSSG-GloTM Assay Kit Catalogue #[…] and Described in Technical Manual #TM344 from Promega • (A) Starting with the cell or tissue sample from point 2 of Example 1, the cell supernatant is removed. • (B) 100 μL of cold Passive lysis buffer is 1× diluted in water is added per well, to tissue/cell samples and shaken for 5 min at 300 rpm on ice. • (C) 100 μL of lysate is placed into 2 wells containing 50 μL each. • (D) In one well 1 μL of Luciferin-NT is added for quantification of total GSH. • (E) In the other well, 1 μL of Luciferin-NT and 0.5 μL of N-Ethylmaleimide (NEM) at 25 mM is added for quantification of oxidized GSSG. • (F) Both wells are incubated for 5 min shaking at 300 rpm at room temperature. • (G) 50 μL of Luciferin Generation Reagent is added per well, and both wells shaken for 1 min. • (H) Both wells are incubated for 29 min standing at room temperature. • (I) 100 μL of Luciferin detection reagent is added to both wells and they are shaken for 1 min. • (J) Both wells are incubated for 14 min. • (K) Both wells are transferred to an assay plate containing a calibration curve (suitably prepared as in the supplier's protocol). • (L) The luminescence of each well is measured with FLUOstar® Omega “GSHG assay” In this example oxidative stress was simulated by adding menadione sodium bisulfite to four samples. Four of the samples had 10 μM, 30 μM, 100 μM or 300 μM of menadione sodium bisulfite respectively added to the medium to simulate increasing levels of oxidative stress. The fifth sample was used as the vehicle control wherein on the medium and 0.3% water were added. The assays were performed in triplicate on NHBE cells. In the top row of FIG. 9, the same experiments of the invention as per Example 6 (shown top row of FIG. 8) were carried out. In addition, the ROS endpoint analysis method of the invention (as per Example 5 above) was carried out on the same samples at the 1 hour and 2 hour time points (shown in FIG. 9, bottom row). A star (*) indicates significance P<0.05 paired t-test. Two stars (**) indicates significance P<0.01 paired t-test. The cells used where an NHBE cell line exposed to water-soluble menadione sodium bisulfite.

Data set [2] relates to 3D bronchial cultures. Description: Modified GSH/GSSG-Glo assay in 3D bronchial cultures. It counts as cell-based, human. The protocol:
(§1) • 1. A tissues sample is treated basolaterally in medium containing 25 μM ROS-Glo™ H2O2 substrate for the desired exposure duration. • Treatment duration is not longer than 6 hours due to instability of the substrate. • 2. After treatment, 75 μL of the medium is collected for the ROS endpoint (see example 3), and the remaining cell or tissue sample transferred to new 24-well plate for the GSH/GSSG endpoint. ROS samples are stored at 4° C. for a maximum total of 6 hours taking into account the treatment duration, while GSH/GSSG samples must be processed immediately.
This Specific Example Based on GSH/GSSG-Glo™ Assay Kit Catalogue #V6611 and V6612 and Described in Technical Manual #TM344 from Promega • (A) Starting with the cell or tissue sample from point 2 of Example 1, the cell supernatant is removed. • (B) 100 μL of cold Passive lysis buffer is 1× diluted in water is added per well, to tissue/cell samples and shaken for 5 min at 300 rpm on ice. • (C) 100 μL of lysate is placed into 2 wells containing 50 μL each. • (D) In one well 1 μL of Luciferin-NT is added for quantification of total GSH. • (E) In the other well, 1 μL of Luciferin-NT and 0.5 μL of N-Ethylmaleimide (NEM) at 25 mM is added for quantification of oxidized GSSG. • (F) Both wells are incubated for 5 min shaking at 300 rpm at room temperature. • (G) 50 μL of Luciferin Generation Reagent is added per well, and both wells shaken for 1 min. • (H) Both wells are incubated for 29 min standing at room temperature. • (I) 100 μL of Luciferin detection reagent is added to both wells and they are shaken for 1 min. • (J) Both wells are incubated for 14 min. • (K) Both wells are transferred to an assay plate containing a calibration curve (suitably prepared as in the supplier's protocol). • (L) The luminescence of each well is measured with FLUOstar® Omega “GSHG assay”
(§2) A 3D bronchial culture can be provided by isolating bronchial cells or using commercially available primary cells, culturing them and seeding them on a 3D framework. Suitable cultures include MucilAir™. MucilAir™ is an in vitro cell model of the human airway eplithelium cultures at the air liquid interface and available from Epithelix (for example, here https://www.epithelix.com/products/mucilair).
(§3) FIG. 11 is a further schematic showing how GSH/GSSG and ROS assays (as detailed in Example 4 and Example 5 above) can be adapted to 3D bronchial cultures. In this experiment, three 3D cultures were used. […] The GSH/GSSG-Glo assays were performed on samples from the cell culture within the culture insert and the ROS-Glo assays were performed on the basolateral medium. This was performed in triplicate.

Data set [3] relates to 3D bronchial cultures. Briefly: ROS-Glo H2O2 assay on basolateral medium of 3D bronchial cultures. The format is cell-based, human. The protocol:
as §1
(§4) This Specific Example is Based on Non-Lytic Variant of ROS-Glo™ H2O2 Assay Kit Catalogue #G8820 and G8821 and Described in Technical Manual TM391 from Promega. • (a) 75 μL of sample medium collected in Example 1, step 2, and 75 μL of compound interference controls are added to an assay plate. • (b) 10 wells, 100 μL per well are added to the assay plate for standard curve calibration. • (c) 75 μL of freshly prepared ROS-Glo Detection Solution™ is added to all samples and compound interference control wells.
as §2, §3

Data set [4] has as its system NHBE cells. Briefly: ROS-Glo H2O2 assay (non-lytic) in NHBE cells. The format is cell-based, human. On the procedure: • 1. A tissues sample is treated basolaterally in medium containing 25 μM ROS-GloTM H2O2 substrate for the desired exposure duration. • Treatment duration is not longer than 6 hours due to instability of the substrate. • 2. After treatment, 75 μL of the medium is collected for the ROS endpoint (see example 3), and the remaining cell or tissue sample transferred to new 24-well plate for the GSH/GSSG endpoint. ROS samples are stored at 4° C. for a maximum total of 6 hours taking into account the treatment duration, while GSH/GSSG samples must be processed immediately. This Specific Example is Based on Non-Lytic Variant of ROS-GloTM H2O2 Assay Kit Catalogue #[…] and Described in Technical Manual TM391 from Promega. • (a) 75 μL of sample medium collected in Example 1, step 2, and 75 μL of compound interference controls are added to an assay plate. • (b) 10 wells, 100 μL per well are added to the assay plate for standard curve calibration. • (c) 75 μL of freshly prepared ROS-Glo Detection SolutionTM is added to all samples and compound interference control wells. D-cysteine is added on top if not present in reagents, preferably 0.01 to 20 mM, preferably 0.1 to 10 mM. • (d) 100 μL of ROS-Glo Detection SolutionTM is added to standard curve wells. • (e) The assay plate is shaken for 1 minute at room temperature on a plate shaker set at 300 rpm. • (f) The plate is incubated for 20 minutes standing at room temperature. • (g) Luminescence is measured with FLUOstar® Omega using the pre-defined “ROS-GloTM H2O2 assay”. In this example oxidative stress was simulated by adding menadione sodium bisulfite to four samples. Four of the samples had 10 μM, 30 μM, 100 μM or 300 μM of menadione sodium bisulfite respectively added to the medium to simulate increasing levels of oxidative stress. The fifth sample was used as the vehicle control wherein on the medium and 0.3% water were added. The assays were performed in triplicate on NHBE cells. In the top row of FIG. 9, the same experiments of the invention as per Example 6 (shown top row of FIG. 8) were carried out. […]

Data set [5] has as its system 3D bronchial cultures. Description: Cell viability in 3D bronchial cultures. It counts as cell-based, human. The conditions noted are these: lipid-soluble menadione.
The test system of data set [6] is NHBE cells. Description: Cell viability / cytotoxicity (ATP levels) in NHBE cells. The format is cell-based, human.
The subject of data set [7] is A549 lung cell line. Briefly: ROS-Glo H2O2 assay in A549 lung cell line. It counts as cell-based, human. The following applies: A549, dose-dependent. On the procedure: as §4
In this experiment, an A549 lung cell line was exposed to lipid-soluble menadione (Vitamin K3) to simulate oxidative stress.

For data set [8], the system named is A549. The conditions noted are these: A549, 5,000 cells/well, menadione-treated; cited from earlier work.
In data set [9] the test system is A549 lung cell line. Briefly: GSH/GSSG assay in A549 lung cell line. It counts as cell-based, human. The conditions noted are these: A549, dose-dependent. On the procedure:
This Specific Example Based on GSH/GSSG-Glo™ Assay Kit Catalogue #V6611 and V6612 and Described in Technical Manual #TM344 from Promega • (A) Starting with the cell or tissue sample from point 2 of Example 1, the cell supernatant is removed. • (B) 100 μL of cold Passive lysis buffer is 1× diluted in water is added per well, to tissue/cell samples and shaken for 5 min at 300 rpm on ice. • (C) 100 μL of lysate is placed into 2 wells containing 50 μL each. • (D) In one well 1 μL of Luciferin-NT is added for quantification of total GSH. • (E) In the other well, 1 μL of Luciferin-NT and 0.5 μL of N-Ethylmaleimide (NEM) at 25 mM is added for quantification of oxidized GSSG. • (F) Both wells are incubated for 5 min shaking at 300 rpm at room temperature. • (G) 50 μL of Luciferin Generation Reagent is added per well, and both wells shaken for 1 min. • (H) Both wells are incubated for 29 min standing at room temperature. • (I) 100 μL of Luciferin detection reagent is added to both wells and they are shaken for 1 min. • (J) Both wells are incubated for 14 min. • (K) Both wells are transferred to an assay plate containing a calibration curve (suitably prepared as in the supplier's protocol). • (L) The luminescence of each well is measured with FLUOstar® Omega “GSHG assay” […]

Data set [10] relates to HepaRG ®. The following applies: HepaRG, 50,000 cells/well, menadione-treated; cited from earlier work.
In data set [11] the test system is A549 lung cell line. Briefly: Cell viability in A549 lung cell line. The following applies: A549, two highest concentrations. It counts as cell-based, human.
The test system of data set [12] is HeLa. The following applies: HeLa, 5,000 cells/well, menadione-treated; cited from earlier work.
For data set [13], the system named is HepG2. The conditions noted are these: HepG2, 10,000 cells/well, menadione-treated; cited from earlier work.
Data set [14] has as its system Rat hepatocytes. The following applies: Rat hepatocytes, 50,000 cells/well, menadione-treated; cited from earlier work.
[15] abbreviates: 30 µM, 1 hour and 2 hour time points.
Setting [16] is: higher dose (300 μM) versus lower dose, 3D bronchial culture.
The mark [17] stands for this setting: higher dose (300 μM), 3D bronchial culture.
[18] abbreviates: lower dose (100 μM), 3D bronchial culture.
[19] abbreviates: 3D bronchial cultures, lipid-soluble menadione, dose-dependent.

Regarding `CC1(S(=O)(=O)[O-])CC(=O)c2ccccc2C1=O.[Na+]` (stereo not shown) [Menadione sodium bisulfite, menadione sodium bisulfite], the GSH/GSSG entry is “no changes in GSH/GSSG” in data set [1] (setting [15]), “further decreased” in data set [2] (setting [17]) and “no effect on GSH/GSSG” in data set [2] (setting [18]). Moreover, the GSSG entry in data set [2] (setting [16]) is reported as “no further impact”. For the same compound, in data set [2] (setting [17]), the GSH result is on record as “further decreased”. Further, the figures for the ROS result in data set [3] (setting [16]), in [3] (setting [18]) and in [4] (setting [15]) were “no further impact”, “significantly increased ROS” and “increased ROS”, respectively.
Take `CC1=CC(=O)c2ccccc2C1=O` [Menadione]: the GSH/GSSG entry in data set [1] (100 μM) is given as “decreased GSH/GSSG”; in [1] (300 μM (highest dose)) it was “lowest GSH/GSSG”; in data set [2] (setting [19]), “dose-dependent decrease”; in data set [9], “decrease in GSH/GSSG”. The compound further gave a GSH/GSSG reduction in [1] (300 μM (highest dose)) of 6 fold. The cell viability entry in [5] is “no effects on cell viability”; in [6] (300 μM (highest dose)), “decreased cell viability”; in data set [11], “effects on cell viability at the two highest concentrations”. Moreover, the GSH result in data set [2] (setting [19]) was “dose-dependent decrease”. The GSSG entry in [2] (setting [19]) was “increase”. In addition, the “oxidative stress and cytotoxicity (as determined by ATP levels) with longer exposure” value in [6] (2 hour versus 1 hour time point) was “more oxidative stress and cytotoxicity”. For the same compound, the ROS entry in data set [3] (setting [19]) was “increase”; in [7] it was “increase in ROS”; in data set [4] (100 μM), “increased ROS”; in data set [4] (300 μM (highest dose)), “highest ROS”. The “Ratio GSH/GSSG” value in data set [8] was 10.9; in data set [10] it was 2.5; in data set [12], 2.2; in data set [13] it was 2.2; in data set [14], 1.1.

The values are drawn from US20260243781A1, “METHOD” (Philip Morris Products S.A., priority 2023, published 2026).
